Key:
[1] = system: E. faecium D344SRF pCWR624Δpbp5_pbp5_V2; experiment: Disk diffusion assay, pbp5_V2; format: cell-based, Enterococcus faecium; conditions: strain pbp5_V2 (N523A_Q627A); 37 °C, 24 h; n=3
Experimental: (§1) The synthetic genes were purchased from GeneWiz (South Plainfield, NJ). The ribosome binding site sequence AGGAGG (Shine-Dalgarno), and a string of five A’s followed by the sequence […], that corresponds to the first 15 bp found in pbp5 from E. faecium C68 were added upstream of the START codon. The terminator sequence […] was added downstream of the STOP codon. BamHI restriction sites were added to the flanking 5′ and 3′ ends. The synthetic genes were inserted into the vector pCWR624Δpbp5. This vector was derived from pCWR624[10], in which the pbp5 gene from D366 was excised by digestion with BamHI followed by re-ligation of the vector, allowing subsequent insertion of modified synthetic pbp5s into the BamHI site downstream of ftsWEfm and psr from E. faecium C68[10]. The synthetic genes were inserted in a BamHI site located downstream of psr. The proper orientation was confirmed by PCR amplification using the forward primer OR_pbp5_FOR_1 (5′-[…]-3′) and the reverse primer OR_pbp5_REV_1 (5′-[…]-3′). Plasmids were sequence verified for the specific binding site mutations. The resulting constructions were electroporated into the natural pbp5(-) mutant E. faecium D344SRF with a selection on brain heart infusion agar (BHI) plates containing kanamycin (1500 µg/ml).
(§2) E. faecium strains were streaked fresh from −80 °C stored glycerol stocks onto brain heart infusion (BHI) agar plates and incubated for 18 h at 37 °C. Strains harboring the plasmid derivatives were grown under antibiotic pressure on agar plates containing kanamycin at 1500 µg/ml. A single colony was inoculated into BHI or BHI-kanamycin (1500 µg/ml) for overnight cultures (18 h).
(§3) Antibiotic disks used were manufactured by BD BBL^TM. Disk diffusion assays were performed according to the Clinical and Laboratory Standards Institute (CLSI) guidance. Overnight cultures were inoculated into 3 ml of BHI or BHI-kanamycin (1500 µg/ml) broth with a dilution of 1:100 and incubated until an OD600 of ~0.5 was reached. […] The plates were incubated at 37 °C and the zones of inhibition were measured after 24 h. […]

[2] = system: E. faecium D344SRF pCWR624Δpbp5_pbp5_V3; experiment: Disk diffusion assay, pbp5_V3; format: cell-based, Enterococcus faecium; conditions: strain pbp5_V3 (loop 625-631); 37 °C, 24 h; n=3
Experimental: as §1, §2, §3

[3] = system: E. faecium D344SRF pCWR624Δpbp5_pbp5_V4; experiment: Disk diffusion assay, pbp5_V4; format: cell-based, Enterococcus faecium; conditions: strain pbp5_V4 (D530A_L533A_W457A); 37 °C, 24 h; n=3
Experimental: as §1, §2, §3

[4] = system: E. faecium D344SRF pCWR624Δpbp5_pbp5_V2; experiment: MIC by broth microdilution, pbp5_V2; format: cell-based, Enterococcus faecium; conditions: strain pbp5_V2 (N523A_Q627A); 37 °C, 20 h; n=3
Experimental: as §2

[5] = system: E. faecium D344SRF pCWR624Δpbp5_pbp5_V3; experiment: MIC by broth microdilution, pbp5_V3; format: cell-based, Enterococcus faecium; conditions: strain pbp5_V3 (loop 625-631); 37 °C, 20 h; n=3
Experimental: as §1, §2
(§4) MIC determination was performed using a standard broth microdilution technique in duplicate from independent cultures. Overnight cultures were inoculated into 3 ml of BHI or BHI-kanamycin (1500 µg/ml) broth in a dilution of 1:100 and incubated until an OD600 of ~0.5 was reached. Cultures were diluted 1:1000 and inoculated into the 96-well plates with the corresponding antibiotics to be tested. Plates were incubated at 37 °C for 20 h and read by eye. […]

[6] = system: E. faecium D344SRF pCWR624Δpbp5_pbp5_V6; experiment: MIC by broth microdilution, pbp5_V6; format: cell-based, Enterococcus faecium; conditions: strain pbp5_V6 (E284A_E291A_S294A_N295A); 37 °C, 20 h; n=3
Experimental: as §1, §2, §4

PBP5 (PBP5_37-678) = experiment: NMR chemical shift perturbation titration (2D [1H,15N] TROSY, 2D [1H,13C] ILV methyl HMQC) of stem peptides / PG into PBP5; format: binding, Enterococcus faecium; conditions: NH CSP titration up to 1:80 PBP5:SP1, not saturated: KD overestimated (upper bound); 10 mM MES pH 5.8, 25 mM NaCl, 308 K; read-out: KD, mean±std of residue-specific values
Experimental: Data was processed using Topspin 4.1.4 (Bruker) and analyzed using NMRFAM-SPARKY 1.3 and Poky (build number 20240829)[20],[21]. The sequence-specific backbone assignment of PBP5 is publicly available at BMRBID 51690.
SPs (SP1 to SP7) were titrated into 0.5 mM (^2H,^15N)-labeled and 0.1 mM (^2H,^15N)/^13C ILV labeled PBP5 at molar ratios of 0:1, 5:1, 10:1, 20:1, 40:1, 60:1, and 80:1 (stem peptide/SP:PBP5; molar ratios). 2D [^1H,^15N] TROSY or 2D [^1H,^13C] HMQC spectra were recorded for each titration point. SPs were solubilized in NMR buffer. Chemical shift perturbations (Δδ) between PBP5 and SP bound PBP5 spectra were calculated using Eq. 1,1 Δδppm=ΔδH^2+ΔδX/Y^2 where, X is ^15N or ^13C and Y is the constant i.e., 10 for ^15N and 4 for ^13C.
Residues with significant CSPs were identified by calculating the standard deviation of all CSPs (σ), then excluding any CSPs larger than average+2σ, recalculating σ as a new corrected σ0, and then repetitively removing CSPs above 2σ0 until no additional CSPs can be removed. CSPs above ≥2σ2 was the statistical threshold for ^1H/^15N backbone CSP analysis and ≥2xσ1 for ^1H/^13C methyl ILV data for the interaction of SP1 with PBP5. The same threshold values were used for all other peptides to allow for direct comparison with the SP1/PBP5 interaction. The identical significance analysis was also performed for PenG/ceftaroline saturated PBP5 (1:8 molar ratio of PBP5 to β-lactam antibiotics was used to ensure saturation of an extended time period needed for the SP titrations) SP interaction studies; CSPs above ≥2σ3 was the statistical threshold for ^1H/^15N backbone CSP analysis and ≥2xσ2 for ^1H/^13C methyl ILV data to identify all residues with a statistically significant change in its chemical shift upon SP interaction.
Residue specific KD values were calculated by using Eq. 2[23],2 CSPobs=CSPmax/2PP+S+KD−P+S+KD^2−4[S][P] where P and S are the concentration of PBP5 and SP1, respectively. CSPobs is the experimentally observed chemical shift value and CSPmax is the largest experimentally observed chemical shift value of the residue. […] The lack of saturation was due to the limited amount of available SP peptide due to their difficult synthesis. Residues used for KD calculation were common residues with statistically significant CSPs in the interaction studies of SP1 and SP2 with PBP5 at a 1:80 ratio.

In the case of `CO/N=C(\C(=O)N[C@@H]1C(=O)N2C(C(=O)O)=C(CSc3nc(=O)c(=O)[nH]n3C)CS[C@H]12)c1csc(N)n1` [Ceftriaxone, ceftriaxone], the “Zone Size (mm) [Range]” value [1] is reported as 24 [24-26] mm, the “Zone Size (mm) [Range]” value [2] is reported as 28 [26-28] mm and the “Zone Size (mm) [Range]” value [3] is reported as 26 [26-28] mm. The “MIC (µg/ml) [Range]” value [4] was 50 [50-100] µg/ml, the “MIC (µg/ml) [Range]” value [5] was 25 [25] µg/ml and the “MIC (µg/ml) [Range]” value [6] was > 3200 [>3200] µg/ml.
“D-Lac-L-Ala-D-iGln-L-Lys(D-iAsn)-D-Ala-D-Ala [SP1]” showed a Kd (PBP5 (PBP5_37-678)) of about 4 mM.
